The record followed here is ChEMBL document CHEMBL1255532, “Cytotoxic cycloartane triterpene and rare isomeric bisclerodane diterpenes from the leaves of Polyalthia longifolia var. pendula” (Bioorg Med Chem Lett, 2010).

A word on the IC50: it is the concentration needed to halve the response being measured. A lower IC50 goes with greater potency.

Values after ≈ are worked out from the molar mass of the structure shown.

For assay [1], the system named is A549. Description: Cytotoxicity against human A549 cells after 48 hrs by SRB assay. It counts as functional, cell-based. To be noted: A549, 48 h. (In general: In SRB staining, fixed cells bind dye roughly in proportion to their protein.)
Assay [2] deals with C-33-A. Description: Cytotoxicity against human C33A cells after 48 hrs by SRB assay. It counts as functional, cell-based.
The test system of assay [3] is MCF7. Description: Cytotoxicity against human MCF7 cells after 48 hrs by SRB assay. Format: functional, cell-based. To be noted: MCF7, 48 h.
Assay [4] has as its system KB. Kind of assay: Cytotoxicity against human KB cells after 48 hrs by SRB assay. Format: functional, cell-based.
Assay [5] can be described thus: Cytotoxicity against mouse NIH/3T3 cells after 48 hrs by SRB assay. It counts as cell-based. The conditions noted are these: NIH3T3, 48 h.

For the compound `COc1cccc2c1C(=O)c1c(O)c3c(c(O)c1C2=O)C[C@@](O)(C(=O)CO)C[C@@H]3O[C@H]1C[C@H](N)[C@H](O)[C@H](C)O1` [DOXORUBICIN], the IC50 was determined as 0.33 µg/mL (≈ 0.607 µM) in assay [1], 0.28 µg/mL (≈ 0.515 µM) in assay [2], 0.45 µg/mL (≈ 0.828 µM) in assay [3] and 0.12 µg/mL (≈ 0.221 µM) in assay [4].

Turning to `C=C(C(C)C)[C@@H](O)C[C@@H](C)[C@H]1[C@@H](O)C[C@@]2(C)[C@@H]3CC[C@H]4C(C)(C)[C@@H](O)CC[C@@]45C[C@@]35CC[C@]12C` [LONGITRIOL], the IC50 in assay [5] was over 50 µg/mL; in assay [1], 13.2 µg/mL (≈ 27.9 µM); in assay [2] it was 10 µg/mL (≈ 21.2 µM); in assay [3], 30.9 µg/mL (≈ 65.3 µM); in assay [4], 24.1 µg/mL (≈ 51 µM).

With `CC1=CCC[C@@H]2[C@@](C)(CCC3=CC(=O)N(/C=C(\CC[C@@]4(C)[C@H](C)CC[C@@]5(C)C(C)=CCC[C@H]45)CC(=O)O)C3=O)[C@H](C)CC[C@@]12C` [LONGIMIDE A], the IC50 in assay [5] was 44.7 µg/mL (≈ 72.3 µM); in assay [1] it was 10.1 µg/mL (≈ 16.4 µM); in assay [2], 4.12 µg/mL (≈ 6.67 µM); in assay [3], 9.23 µg/mL (≈ 14.9 µM); in assay [4] it was 8.85 µg/mL (≈ 14.3 µM).
